Test results from patent US11624068B2, “Compositions and methods for improving immune system function” (Tufts Medical Center, Inc., priority 2016, dated 2023).

Tests used:
Format in all cases: cell-based, human
CD4 T cells = test: IL2 ELISA, T cells repeatedly stimulated with anti-CD3/CD28 beads (in vitro exhaustion model); conditions: T cells continuously with Ezh2 inhibitor (10 nmol), after the 4th stimulation
Description: (§1) In experiments using p38MAPK, JNK, MEK1 and Ezh2 inhibitors, cells were grown in the continued presence of inhibitors. After each wash and activation step, cells were treated with a fresh batch of inhibitors. The following inhibitors were used: MAPKp38-SB202190 (10 μmol/ml) (Sigma, cat. S7067), JNK-SP600125 (10 μmol/ml) (Sigma, cat. S5567), MEK1-PD98059 (5 μmol/ml) (Calbiochem, cat. 513001), MEK1/2-inhibitor III (5 μmol/ml) (Calbiochem, cat. 444966) and Ezh2-[…] (10 nmol) (Millipore, cat. 505052). DMSO was used as a mock treatment. The specificity of p38MAPK, JNK and MEK1 inhibitors to block the downstream kinases, phospho-ATF2, phospho-cJun and phospho-ERK, respectively, was confirmed by westerns (FIG. 18A).
(§2) ELISA assays were performed using human IL2 and IFNγ Ready-SET-Go kits (eBioscience). Three replicates were included for each experimental set and each experiment was repeated three or more times. ELISA was performed on the supernatant saved from each stimulation step. CD4+ or CD8+ T cells were stimulated with anti-CD3/CD28 beads and cultured for 48 hours, after which cells were spun down and supernatants carefully removed and saved at −20° C. The same procedure was followed for the rest of the stimulation steps.
Human T cell isolation and culture in vitro. […] 48 hours after the first stimulation, cells were counted and washed, and beads were removed using a magnet. […]

H3-K27 trimethylation = test: Western blot for H3K27me3 in repeatedly stimulated T cells; conditions: inhibitor maintained in activation cultures; FIG. 2D
Description: as §1
(§3) For denaturing westerns, 20-40 μg of protein extracted from T cells was used. RIPA lysis buffer (Sigma, cat. R0278) was used to prepare whole cell extracts. For native gel analysis, cells were lysed in native lysis buffer (50 mM Tris-Cl, pH 8.0; 1% NP40; 150 mM NaCl, 100 μg leupeptin, 1 mM PMSF, 5 mM orthovanadate). For both native and denaturating conditions, samples were resolved on 4-15% TGX precast gels (Bio-Rad, cat. 456-1084) with the difference in running buffer. Native samples were run without SDS. […]

[1] = system: H3-K27 trimethylation of the IL2 promoter; test: ChIP with anti-H3K27me3 antibody and qPCR for IL2 promoter; conditions: repeatedly stimulated CD4 T cells; FIG. 2E
Description: Chromatin immunoprecipitation assay. The ChIP assay was performed using a ChIP-IT high sensitivity kit (Active Motif, cat. 53040), following the manufacturer's recommended protocol. Human CD4+ T cells were repeatedly activated with CD3/CD28 beads in the continued presence of Ezh2 inhibitor or transfected with YY1 shRNA and a control after 2nd stimulation. Approximately 15 μg of chromatin was used in each reaction with an antibody that specifically recognizes H3K27me3 (Active Motif, cat. 39155). Fold enrichment was calculated relative to IgG and input.

T cells = test: IFNγ ELISA, repeatedly stimulated T cells; conditions: FIG. 16
Description: as §2
Human T cell isolation and culture in vitro. CD4+ and CD8+ T cells were enriched from peripheral blood mononuclear cells obtained from healthy donors. Leukoreduction filters from Boston Children's Hospital that were processed using histopaque (Sigma) cushions to separate PBMCs were used. Human CD8+ and CD4+ cells were enriched using naïve CD8 and CD4 T cell enrichment cocktail (BD Biosciences, cat. 51-900481 and 9002314, respectively). […] Cells were stimulated the same day with T-Activator CD3/CD28 dynabeads (Life Technologies, cat. 11131D) following the manufacturer's recommendations. 48 hours after the first stimulation, cells were counted and washed, and beads were removed using a magnet. This was followed by a second, third and fourth round of stimulations with fresh batches of CD3/CD28 beads. […]

CEA-CAR T cells = test: IL2 ELISA in MIPCEA/CAR-T cell cocultures; conditions: 2nd generation CAR-T, MIPCEA cocultures; Ezh2 inhibitor 10 nm or nivolumab 20 μg/ml
Description: as §2
To produce second generation CEA-CAR T cells, T cells were modified by retroviral gene therapy to express a single chain antibody domain (sFv) that recognizes CEA tumor antigen. This anti-CEA binding domain is fused together with the full length sequence of CD28 co-stimulatory molecule and sequences of the signaling chain of the CD3 complex (signal 1+2) (FIG. 6A) (Nolan et al., 1999). The clinical grade CEA-CAR vector producing cells have been successfully tested in a number of in vitro studies as well as in a clinical setting to modify T cells for breast cancer clinical trials (Katz et al., 2015). […]
MIP101 and MIPCEA, tumor cell coculture with CEA-CAR modified T cells. […] Each time after the coculture, tumor cells were trypsinized (cellgro) and counted.

MIPCEA cells = conditions: by the 3rd co-culture; Ezh2 inhibitor 10 nm
Source text: To produce second generation CEA-CAR T cells, T cells were modified by retroviral gene therapy to express a single chain antibody domain (sFv) that recognizes CEA tumor antigen. This anti-CEA binding domain is fused together with the full length sequence of CD28 co-stimulatory molecule and sequences of the signaling chain of the CD3 complex (signal 1+2) (FIG. 6A) (Nolan et al., 1999). The clinical grade CEA-CAR vector producing cells have been successfully tested in a number of in vitro studies as well as in a clinical setting to modify T cells for breast cancer clinical trials (Katz et al., 2015). The first generation CEA-CAR contains anti-CEA binding domain fused with signaling chain (signal 1) (Nolan et al., 1999 Clin Cancer Res 5, 3928-3941). Transduction of T cells with anti CEA-CAR vector were as previously described (Beaudoin et al., 2008 Nat Med 9, 540-547).
MIP101 and MIPCEA, tumor cell coculture with CEA-CAR modified T cells. MIP101 is a CEA-undifferentiated human carcinoma cell line derived from liver metastases of colonic adenocarcinoma patients. The MIPCEA cell line was generated by stably expressing the full length CEA gene in MIP101 cells (Thomas et al., 1995 Cancer Lett 92, 59-66). […] Each time after the coculture, tumor cells were trypsinized (cellgro) and counted.

YY1 promoter = YY1 promoter luciferase reporter assay in restimulated T cells; conditions: after four stimulations, continued presence of inhibitor; FIG. 5C upper
Description: Human YY1 promoter luciferase construct YY1-pGLuc-basic was a kind gift from Dr. Guangchao Sui of Wake Forest Health Sciences, NC (Huang et al., 2012 Nucleic Acids Res 40, 1033-1049). The cJun/ATF2 octameric palindrome cyclic AMP-response element (CRE), 5′-[…]-3′(SEQ ID NO: 40), was mutated to 5′-cGgCaTaA-3′ (SEQ ID NO: 41) using the service of GenScript Inc. (Item cat. 426354-1).
The reporter assays and plasmid overexpression were performed in 6 well tissue culture plates. 5×10^6 T cells were transfected with plasmids using Amaxa human T cell nucleofector Kit, cat. VPA-1002 (Lonza). Transfections were performed using Amaxa nucleofector II device, program no. T-023/T-020. Luciferase assays were generally performed 48 hours after transfections. […] The YY1 promoter luciferase assay was measured from T cell culture supernatants using BioLux Gaussia lucferase assay kit (New England Biolabs, cat. no. E3300S). Amounts of transfected plasmids were kept proportionally constant. Samples were assayed for reporter activity using a Gloma 20/20 Luminometer (Promega), essentially using the recommended parameters provided by the reagent suppliers.
In experiments using p38MAPK, JNK, MEK1 and Ezh2 inhibitors, cells were grown in the continued presence of inhibitors. After each wash and activation step, cells were treated with a fresh batch of inhibitors. […]

[2] = system: phospho-ATF2, phospho-cJun and phospho-ERK; test: Kinase activities by western blot (inhibitor specificity); conditions: respectively, westerns, FIG. 18A
Description: as §1, §3

YY1 = test: Western blot of YY1 protein in T cells grown with kinase inhibitors; conditions: same cells as reporter assay; FIG. 5C lower
Description: as §1, §3

Row | Compound | IL2 production of CAR-T cells on repeated exposure to tumor cells (CEA-CAR T cells) | YY1 luciferase reporter transcriptional activity (YY1 promoter) | specificity to block the downstream kinases [2] | also measured
1 | CCCc1cc(C)[nH]c(=O)c1CNC(=O)c1cc(-c2ccc(N3CCN(C(C)C)CC3)nc2)cc2c1cnn2C(C)C [Ezh2 inhibitor] | sustained IL2 |  |  | IL2 exceeding that of control T cells by a factor (CD4 T cells): > 40; H3-K27 trimethylation by western (H3-K27 trimethylation): suppressed; H3-K27 trimethylation of the IL2 promoter by ChIP/qPCR [1]: suppressed; IFNγ shutdown after repeated T cell stimulation (T cells): does not protect; net benefit in killing versus untreated CAR-T cells (MIPCEA cells): 5 fold
2 | COc1cccc(-c2cc(=O)c3ccccc3o2)c1N [MEK1 inhibitor, PD98059] |  | no impact | confirmed | 
3 | Oc1ccc(-c2nc(-c3ccncc3)c(-c3ccc(F)cc3)[nH]2)cc1 [p38MAPK inhibitor, SB202190] |  | suppressed | confirmed | YY1 protein by Western blot (YY1): suppressed
4 | nivolumab | same IL2 loss as control T cells |  |  | 
